How the values were obtained:
[1] = tested on: MV4-11 acute myeloid leukemia xenograft; assay: MV4-11 xenograft tumor growth in SCID mice; assay type: in vivo; conditions: for tumor response by day 10: fumarate
Method: The human acute myeloid leukemia cell line MV4-11 was acquired from American Type Culture Collection (Manassas, VA, USA) and grown in RPMI medium containing 100 units/mL penicillin G sodium, 100 μg/mL streptomycin sulfate. The media was supplemented with 10% heat-inactivated fetal bovine serum, 2 mM L-glutamine, and 0.11% sodium pyruvate. The tumor cells were maintained in a humidified environment of 5% CO2 and 95% air at 37° C. Cells were verified to be free of mouse pathogens by IMPACT IV PCR analysis (IDEXX RADIL, Colombia, MO, USA) before injection.
Female SCID mice were purchased from the Ontario Cancer Institute and received and acclimated at the MaRS-TMDT Animal Resources Centre for 2 weeks prior to the start of the experiment. The mice were fed ad libitum autoclaved water and Rodent Lab Diet (Harlan Teklad LM-485) consisting of 19% crude protein, 5% crude fat, and 5% crude fiber. Mice were housed in microisolator cages and maintained in an environment with a 12-hour light cycle at 20-22° C. and 40-60% humidity. On the day of implantation, MV4-11 cells were harvested and resuspended with serum free DMEM to a concentration of 1×10^8/mL and each mouse was injected subcutaneously with a volume of 0.1 mL containing 1×10^7 MV4-11 cells in the right rear flank.
Animals were dosed Compound (I) via oral gavage in a volume of 10 ml/kg. The animals were dosed with a 2.25 mm×50 mm curved gavage needle affixed to a 1 ml syringe. Vincristine was dosed by IP injection once per week.
Toxicity was evaluated by body weight measurements and clinical observations. The mice were observed daily for overt signs of any adverse, treatment related side effects, and clinical signs of toxicity. Acceptable toxicity was set at a group mean body weight loss of less than 20% during the study and not more than one treatment related death in a group. Animals were monitored for body weights and tumor growth where tumor volumes were calculated using the formula: tumor volume=width^2×length/2.
The study evaluated Compound (I) fumarate administered by oral gavage, either daily at 7.5 mg/kg or 2 days on/5 days off at 13.5 mg/kg, in comparison to the standard-of-care agent vincristine, dosed in 4 weekly intraperitoneal injections of 0.5 mg/kg, in the MV4-11 acute myeloid leukemia xenograft model in SCID (severe combined immunodeficiency) mice. Xenografts were established by subcutaneously injecting 1×10^7 tumor cells into the right flank of female SCID mice. Treatment was initiated 14 days following implantation when tumor volumes reached a mean volume of approximately 90 mm^3. […] Animals were dosed in the 2-on/5-off schedule for 21 days. […] By day 13, the average volume of the control tumors was 878 mm^3, averaging […] tumor growth over the 13 days. On day 13 the average tumor growth inhibition in the vincristine treated arm was 85% (p=0.14).

OCI-AML3 = assay: In vitro cytotoxicity (IC50) assay, alamarBlue; assay type: cell-based; conditions: OCI-AML3, AML M4
Method: (§1) Cells were seeded in triplicate at 10,000 per 80 uL, into 96-well plates 24 hours before compound overlay and cultured at 37° C. and 5% CO2. Compound (I) was prepared as a 10 mM stock in 100% DMSO and diluted with RPMI 1640 cell growth medium containing 10% FBS such that the final concentrations ranged from 50 pM to 15 uM. Aliquots (20 uL) from each concentration were overlaid to 80 uL of pre-seeded cells to achieve final concentrations of 10 pM to 3 uM. After 3 days, cell viability in each well was assessed by alamarBlue assay according to the manufacturer's instruction (ThermoFisher Scientific). Absorbance was read at 570 nm using a SpectraPlus microplate reader (Molecular Devices Corporation). alamarBlue absorbance values were adjusted by subtracting the average of the baseline readings from untreated cells assessed one day after cell seeding. The percentage (%) of relative inhibition of cell viability was calculated by comparing to DMSO-treated cells. IC50s were calculated using GraphPad PRISM software (GraphPad Software Inc.).

NALM-16 = assay: In vitro cytotoxicity (IC50) assay, alamarBlue; assay type: cell-based; conditions: NALM-16, B-ALL
Method: as §1

THP-1 = assay: In vitro cytotoxicity (IC50) assay, alamarBlue; assay type: cell-based; conditions: THP-1, AML M5
Method: as §1

JURKAT = assay: In vitro cytotoxicity (IC50) assay, alamarBlue; assay type: cell-based; conditions: T-ALL
Method: as §1

OCI-LY10 = assay: In vitro cytotoxicity (IC50) assay, alamarBlue; assay type: cell-based; conditions: OCI-LY10, NHL ABC-DLBCL
Method: as §1

RAJI = assay: In vitro cytotoxicity (IC50) assay, alamarBlue; assay type: cell-based; conditions: NHL B-Cell Burkitt
Method: as §1

OCI-LY18 = assay: In vitro cytotoxicity (IC50) assay, alamarBlue; assay type: cell-based; conditions: OCI-LY18, NHL GCB-DLBCL
Method: as §1

OCI-AML4 = assay: In vitro cytotoxicity (IC50) assay, alamarBlue; assay type: cell-based; conditions: OCI-AML4, AML M4
Method: as §1

REH = assay: In vitro cytotoxicity (IC50) assay, alamarBlue; assay type: cell-based; conditions: B-ALL
Method: as §1

SU-DHL-8 = assay: In vitro cytotoxicity (IC50) assay, alamarBlue; assay type: cell-based; conditions: SU-DHL-8, NHL DLBCL
Method: as §1

NB4 = assay: In vitro cytotoxicity (IC50) assay, alamarBlue; assay type: cell-based; conditions: NB4, AML M3
Method: as §1

KOPN-8 = assay: In vitro cytotoxicity (IC50) assay, alamarBlue; assay type: cell-based; conditions: KOPN-8, B-ALL
Method: as §1

OCI-LY3 = assay: In vitro cytotoxicity (IC50) assay, alamarBlue; assay type: cell-based; conditions: OCI-LY3, NHL ABC-DLCBL
Method: as §1

NALM-6 = assay: In vitro cytotoxicity (IC50) assay, alamarBlue; assay type: cell-based; conditions: NALM-6, B-ALL
Method: as §1

K-562 = assay: In vitro cytotoxicity (IC50) assay, alamarBlue; assay type: cell-based; conditions: K-562, CML
Method: as §1

DAUDI = assay: In vitro cytotoxicity (IC50) assay, alamarBlue; assay type: cell-based; conditions: NHL B-Cell Burkitt
Method: as §1

[2] = Homo sapiens, 72 h, 3 days, read-out: Compound (I) IC50

COc1ccc2c(c1)[C@]1(C[C@H]1c1ccc3c(/C=C/c4ccc(CN5C[C@@H](C)O[C@@H](C)C5)cc4)n[nH]c3c1)C(=O)N2 [Compound (I), (1R,2S)-2-(3-((E)-4-(((2S,6R)-2,6-dimethylmorpholino)methyl)styryl)-1H-indazol-6-yl)-5′-methoxyspiro[cyclopropane-1,3′-indolin]-2′-one]
animals remained tumor-free until ([1]; 2 days-on/5 days-off arm, 13.5 mg/kg): 24 days | overall efficacy in MV4-11 xenograft model ([1]; SCID mice): very efficacious and potentially curative | animals remained tumor-free until ([1]; daily dosing arm, 7.5 mg/kg): 74 days | animals tumor free until last measurement time point ([1]; daily dosing arm, Day 128): Four of 6 | tumor response by day 10 ([1]; oral 13.5 mg/kg 2-on/5-off): completely regressed tumors | tumor response by day 10 ([1]; oral daily 7.5 mg/kg): completely regressed tumors | toxicity: reason daily dosing was halted ([1]; oral daily 7.5 mg/kg, halted after 14 days): excessive body weight loss | Response to Compound (I) (OCI-AML3): mitotic defects + | Response to Compound (I) (NALM-16): mitotic defects + | IC50 (THP-1; [2]): 1.4 nM | Response to Compound (I) (THP-1): death | IC50 (JURKAT; [2]): 0.6 nM | Response to Compound (I) (JURKAT): death | IC50 (OCI-LY10; [2]): 6.8 nM | Response to Compound (I) (OCI-LY10): death | IC50 (RAJI; [2]): 0.1 nM | Response to Compound (I) (RAJI): death | Response to Compound (I) (OCI-LY18): mitotic defects + | Response to Compound (I) (OCI-AML4): mitotic defects + | Response to Compound (I) (REH): death | IC50 (REH; [2]): 5.1 nM | IC50 (SU-DHL-8; [2]): 12 nM | Response to Compound (I) (SU-DHL-8): death | Response to Compound (I) (NB4): mitotic defects + | IC50 (KOPN-8; [2]): 0.7 nM | Response to Compound (I) (KOPN-8): death | Response to Compound (I) (OCI-LY3): mitotic defects + | Response to Compound (I) (NALM-6): mitotic defects + | Response to Compound (I) (K-562): mitotic defects + | IC50 (DAUDI; [2]): 0.2 nM | Response to Compound (I) (DAUDI): death

Source: patent US12533357B2, “Treatment for acute myeloid leukemia or myelodysplastic syndrome” (UNIVERSITY HEALTH NETWORK, priority 2019, dated 2026)
